In US11666549B2, “Regulation of cancer using natural compounds and/or diet” (UNIVERSITY OF FLORIDA RESEARCH FOUNDATION, INC., priority 2013, dated 2023):
Entries after “also recorded” stand apart in the source; their conditions may differ.

Key:
hNSC = hNSC viability, MTT assay after neurosphere culture; assay type: cell-based, human; settings: 14 days culture, daily treatment; EGCG 8 μM, Curcumin 0.5 μM, SFN 2.5 μM or all three
Method: FIG. 33B) hNSC were plated at 20K cells per 100 ul of medium and cultured in the neurosphere assay for 14 days. […] After 14 days in culture, MTT assay was performed to measure cell viability.

[1] = tested on: Primary human GBM stem cell lines; test: NP in vitro fold expansion of hGB cells; assay type: cell-based; settings: EGCG 8 μM, Curcumin 0.5 μM, sulforaphane 2.5 μM or all three; daily for 4 out of 5 days; vs control
Method: Cells were passed after 5-7 days and cell counts were performed. […] Micrographs show cultures after 4 days of exposure to the different treatments.
Patient derived hGB cells were cultured under defined conditions using established protocols that allow the tumor cells to retain both their phenotypic and genotypic properties in vitro. hGB cell lines were treated with the following NPs:

[2] = tested on: Colorectal adenocarcinoma cells (HT-29); test: NP on colon cancer cells in vitro, cell count; assay type: cell-based, human; settings: daily EGCG 8 μM, Curcumin 0.5 μM, sulforaphane 2.5 μM or all three; counted when controls confluent
Method: Once the control cultures became confluent, a cell count was performed.

[3] = tested on: Human breast cancer cells (ZR751); test: NP on breast cancer cell viability, MTT assay; assay type: cell-based; settings: daily EGCG 8 μM, Curcumin 0.5 μM, SFN 2.5 μM or combination; vs controls
Method: Human breast cancer cells (ZR751) were treated daily with EGCG (8 μM), Curcumin (0.5 μM) or SFN (2.5 μM) individually or in combination (NP). Once the control cultures became confluent, cell viability was measured using MTT assay.
Human breast cancer cells [ZR751] grown in culture and treated daily with physiological concentrations of either EGCG (8 μM), Curcumin (0.5 μM) or SFN (2.5 μM) or used in combination (NP).

[4] = tested on: Primary human GB stem cell lines; test: Daily fold expansion, NP and TMZ in vitro; assay type: cell-based; settings: in combination with TMZ; EGCG 8 μM, Curcumin 0.5 μM, SFN 2.5 μM or all three
Method: FIG. 11: Daily fold expansion—Effect of NP and TMZ in vitro. Primary human GB stem cell lines were treated daily for 4 out of 5 days in culture TMZ alone or in combination with EGCG (8 μM), Curcumin (0.5 μM), sulforaphane (2.5 μM) or a combination of all three (NP). Cells were passed after 5-7 days and cell counts performed. […] The stars (*) are compared to control, # to TMZ alone and $ to the different combinations of TMZ with each of the individual natural products. 1 symbol, p<0.05, 3 symbols, p<0.001, 1-way ANOVA.
Standard of care [SOC] for many solid tissue cancers involves the use of chemotherapy, which for many advanced or high grade tumors provides marginal benefit. Patient derived hGB cells were grown in culture and treated daily with the conventional drug temozolomide [TMZ, 20 μM] only or in combination with the following NPs:
[4] a combination of all three NPs
After 5-7 days in culture cells were counted and the mean daily fold expansion calculated.

[5] = tested on: Lung carcinoma cells (A549); test: NP on lung cancer cells in vitro, cell count; assay type: cell-based, human; settings: daily EGCG 8 μM, Curcumin 0.5 μM, sulforaphane 2.5 μM or all three; counted when controls confluent
Method: Once the control cultures became confluent a cell count was performed.

[6] = tested on: Patient derived hGB cells; test: Serial passage of hGB cells, growth and CSC expansion rate (Kll); assay type: cell-based, human; settings: 5 passages; EGCG 8 μM, curcumin 0.5 μM, SFN 2.5 μM or combination; vs control
Method: FIG. 10A) Patient derived hGB cells were serially passed in culture for 5 passages under a variety of treatment conditions. […] Human GB cells were cultured in the neurosphere assay over 5 passages during which CSC expansion rate was evaluated.
In a second experiment [FIG. 10], patient derived hGB cells were serially passed in culture while being treated with the following NPs:
[4] A combination of all three NPs

[7] = tested on: high-grade gliomas such as GB; settings: GB patients; cited from earlier work
[8] = Body weight, TMZ vs. mKD/NP; settings: after 4 days of treatment, TMZ 20 mg/kg
Method: FIG. 6: Body weight—TMZ vs. mKD/NP. Toxicity/safety of mKD/NP was compared to standard of care (TMZ, 20 mg/kg) by monitoring body weight after 4 days of treatment.
The first line chemotherapy for high grade gliomas is temozolomide [TMZ], which is an oral alkylating agent that damages DNA and triggers cell death. While TMZ is an effective chemotherapy agent it also has significant toxicity. Using the same subcutaneous model as noted in example 2, at the time of tumor presentation animals were randomly assigned to one of three groups: [1] control diet, no treatment; [2] control diet, SOC [TMZ, 20 mg/kg three times/week]; [3] mKD/NP diet.

[9] = Non-tumor death, TMZ vs. mKD/NP; assay type: in vivo, mouse; settings: TMZ 20 mg/kg three times/week; mKD/NP diet; vs untreated controls
Source text: FIG. 5: Non-Tumor Death—TMZ vs. mKD/NP. Mortality rate unrelated to tumor was monitored during the course of treatments.

Compound | cell viability (MTT) (hNSC) | mean daily fold expansion of GB cells [1] | cell number [2] | cell viability (MTT) [3] | mean daily fold expansion, natural product added to TMZ treatment [4] | cell number [5] | CSC self-renewing symmetric division rate (Kll) [6] | negative side effects [7] | body weight [8] | body weight ([8]; listed as SOC) | mortality from non-tumor related causes [9]
COc1cc(/C=C/C(=O)CC(=O)/C=C/c2ccc(O)c(OC)c2)ccc1O [Curcumin, curcumin] | did not show any effect on the viability of hNSCs | significant reduction in mean daily fold expansion | significant reduction in cell number | no statistically significant effect on reducing the number of breast cancer cells; also recorded: none of the natural product showed statistically significant effect compared to controls | significant reduction in the mean daily fold expansion of hGB cells compared to control | do not show a statistically significant effect in reducing cell numbers | Only SFN or NP treated groups demonstrated significant decrease | – | – | – | –
C[S+]([O-])CCCCN=C=S (stereo not drawn) [SFN, sulforaphane] | did not show any effect on the viability of hNSCs | significant reduction in mean daily fold expansion | significant reduction in cell number | no statistically significant effect on reducing the number of breast cancer cells; also recorded: none of the natural product showed statistically significant effect compared to controls | enhanced this effect, with SFN demonstrating the greatest effect; also recorded: significant reduction in the mean daily fold expansion of hGB cells compared to control | – | significant decrease of CSCs self-renewing symmetric division rate compared to control | – | – | – | –
Cn1nnc2c(C(N)=O)ncn2c1=O [TMZ, temozolomide] | – | – | – | – | – | – | – | nausea, vomiting and hematological toxicity | significant loss of body weight compared to control and mKD/NP | significantly reduced | increase in mortality compared to the untreated controls
epigallocatechin-3-gallate [EGCG] | did not show any effect on the viability of hNSCs | significant reduction in mean daily fold expansion | significant reduction in cell number | no statistically significant effect on reducing the number of breast cancer cells; also recorded: none of the natural product showed statistically significant effect compared to controls | enhanced this effect; also recorded: significant reduction in the mean daily fold expansion of hGB cells compared to control | do not show a statistically significant effect in reducing cell numbers | Only SFN or NP treated groups demonstrated significant decrease | – | – | – | –
